Structures can show the parent of a compound that is named as a salt.
Tested on: IL-2 production
Assay: Inhibition of IL-2 production in PHA-activated Jurkat cells (ELISA)
Assay type: cell-based
Conditions: Homo sapiens, PHA 2.5 μg/mL, 20 hours at 37° C., IL-2 ELISA
Method: Jurkat cells were placed in a 96 well plate (0.5 million cells per well in 1% FBS medium) then a test compound of this invention was added at different concentrations. After 10 minutes, the cells were activated with PHA (final concentration 2.5 μg/mL) and incubated for 20 hours at 37° C. under CO2. The final volume was 200 μL. Following incubation, the cells were centrifuged and the supernatants collected and stored at −70° C. prior to assaying for IL-2 production. A commercial ELISA kit (IL-2 Eli-pair, Diaclone Research, Besancon, France) was used to detect production of IL-2, from which dose response curves were obtained. The IC50 value was calculated as the concentration at which 50% of maximum IL-2 production after stimulation was inhibited versus a non-stimulation control.

| Compound | IC50 [nM] |
| --- | --- |
| CCOC(=O)N1CCC(Cl)=C(c2ccc(NC(=O)c3c(F)cccc3F)cc2)C1 [Compound 6, ethyl 4-chloro-3-(4-(2,6-difluorobenzamido)phenyl)-5,6-dihydropyridine-1(2H)-carboxylate] | 66 |
| CCOC(=O)N1CCC(c2ccc(NC(=O)c3c(F)cccc3F)cc2)=C(COC(C)=O)C1 [Compound 5, ethyl 3-(acetoxymethyl)-4-(4-(2,6-difluorobenzamido)phenyl)-5,6-dihydropyridine-1(2H)-carboxylate] | > 1000 |
| CC1=C(c2ccc(NC(=O)c3c(F)cccc3F)nc2)CN(C(=O)c2ccccn2)CC1 [Compound 4, 2,6-difluoro-N-(5-(4-methyl-1-picolinoyl-1,2,5,6-tetrahydropyridin-3-yl)pyridin-2-yl)benzamide hydrochloride] | 934 |
| CC1=C(c2cnc(NC(=O)c3c(F)cccc3F)cn2)CN(c2ncccn2)CC1 [Compound 2, 2,6-difluoro-N-(5-(4-methyl-1-(pyrimidin-2-yl)-1,2,5,6-tetrahydropyridin-3-yl)pyrazin-2-yl)benzamide hydrochloride] | 38 |
| CCOC(=O)N1CCC(C)=C(c2ccc(NC(=O)c3c(F)cccc3F)nc2)C1 [Compound 1, ethyl 3-(6-(2,6-difluorobenzamido)pyridin-3-yl)-4-methyl-5,6-dihydropyridine-1(2H)-carboxylate] | 30 |
| C=CCOC(=O)N1CCC(c2ccc(NC(=O)c3c(F)cccc3F)cc2)=C(COC(C)=O)C1 [Compound 3, allyl 3-(acetoxymethyl)-4-(4-(2,6-difluorobenzamido)phenyl)-5,6-dihydropyridine-1(2H)-carboxylate] | > 1000 |

Source: US8349841B2, “Vinyl-aryl derivatives for inflammation and immune-related uses” (Synta Pharmaceuticals Corp., priority 2007, dated 2013)
